Data published in BindingDB's records for doi:10.1073/pnas.92.8.3298 (Agouron Pharmaceuticals, 1995).
pKi: −log10 of the molar value.

Target: T1, Dimer of Gag-Pol polyprotein [489-587] (Human immunodeficiency virus 1, UniProt P12497)
T1 construct: 489-587
Assay: Protease Inhibition Assay
Details: pH 5.6; 37 °C
Description: Protease activity was measured by continuous chromogenic assay. The chromogenic peptide His-Lys-Ala-Arg-Val-Leu- (p-NO2-Phe)-Glu-Ala-Nleu-Ser (Bachem) was used as a substrate. Reactions were followed by the decrease of absorbance at 300 nm measured by spectrophotometer. Experimental results were analyzed by the nonlinear regression analysis, using a mathematical model for tight binding inhibitors.

Question: How did the pKi turn out when `CC(C)(c1ccccc1)N(CCO)C(=O)c1ccccc1CCC(O)Cc1ccccc1C(=O)N(CCO)C(C)(C)c1ccccc1` (stereo not drawn) [2-(3-hydroxy-4-{2-[(2-hydroxyethyl)(2-phenylpropan-2-yl)carbamoyl]phenyl}butyl)-N-(2-hydroxyethyl)-N-(2-phenylpropan-2-yl)benzamide] was run?
Answer: 7.66

Question: How did the pKi turn out when `CCC1(N(CCO)C(=O)c2ccccc2CCC(O)Cc2ccc(Cl)cc2C(=O)N(CCO)C(C)(C)c2ccccc2)CCCC1` (stereo not drawn) [Tertiary Amide deriv. 43cb] was run?
Answer: 8.70

Question: With `CC(C)(C)NC(=O)c1ccccc1SCC(O)Cc1ccccc1C(=O)N(CCO)C(C)(C)C` (stereo not drawn) [Tertiary Amide deriv. 6] as the molecule, how does the pKi read?
Answer: 4.47

Question: How did the pKi turn out when `CC(C)(C)NC(=O)c1ccccc1CCC(O)Cc1ccccc1C(=O)NC(C)(C)C` (stereo not drawn) [2-Butanol deriv. 8] was run?
Answer: 4.62

Question: `CC(C)(C)NC(=O)c1ccccc1C[C@@H](O)[C@H](Cc1ccccc1)NC(=O)[C@H](CC(N)=O)NC(=O)c1ccc2ccccc2n1` [(2S)-N-[(2S,3R)-4-[2-(tert-butylcarbamoyl)phenyl]-3-hydroxy-1-phenylbutan-2-yl]-2-(quinolin-2-ylformamido)butanediamide] was tested. Which pKi did it give?
Answer: 8.80

Question: With `CC(C)(C)NC(=O)c1c(CC[C@H](O)Cc2ccc3ccccc3c2C(=O)NC(C)(C)C)ccc2ccccc12` [N-tert-butyl-2-[(3S)-4-[1-(tert-butylcarbamoyl)naphthalen-2-yl]-3-hydroxybutyl]naphthalene-1-carboxamide] as the molecule, how does the pKi read?
Answer: 6.32

Question: How did the pKi turn out when `CCC1(N(CCO)C(=O)c2ccccc2CC[C@@H](O)Cc2ccc(C)cc2C(=O)N(CCO)C(C)(C)c2ccccc2)CCCC1` [2-[(2R)-4-{2-[(1-ethylcyclopentyl)(2-hydroxyethyl)carbamoyl]phenyl}-2-hydroxybutyl]-N-(2-hydroxyethyl)-5-methyl-N-(2-phenylpropan-2-yl)benzamide] was run?
Answer: 8.32

Question: `CC(C)(C)NC(=O)c1ccccc1CCC(O)Cc1ccc2ccccc2c1C(=O)NC(C)(C)C` (stereo not drawn) [N-tert-butyl-2-{4-[2-(tert-butylcarbamoyl)phenyl]-2-hydroxybutyl}naphthalene-1-carboxamide] was tested. Which pKi did it give?
Answer: 5.66

Question: How did the pKi turn out when `CC(C)(C)NC(=O)c1ccccc1CC(O)CSc1ccccc1NC(=O)C(C)(C)C` (stereo not drawn) [N-tert-butyl-2-(3-{[2-(2,2-dimethylpropanamido)phenyl]sulfanyl}-2-hydroxypropyl)benzamide] was run?
Answer: < 4.00

Question: `CC(C)(C)NC(=O)c1c(CC[C@@H](O)Cc2ccc3ccccc3c2C(=O)NC(C)(C)C)ccc2ccccc12` [diarylbutanol deriv. 7R] was tested. Which pKi did it give?
Answer: 4.60

Question: How did the pKi turn out when `CC(C)(C)N(CCO)C(=O)c1ccccc1CCC(O)Cc1ccccc1C(=O)N(CCO)C(C)(C)c1ccccc1` (stereo not drawn) [N-tert-butyl-2-(3-hydroxy-4-{2-[(2-hydroxyethyl)(2-phenylpropan-2-yl)carbamoyl]phenyl}butyl)-N-(2-hydroxyethyl)benzamide] was run?
Answer: 7.05

Question: `CC(C)(C)NC(=O)c1ccccc1CC(O)CSc1ccccc1C(=O)NC(C)(C)C` (stereo not drawn) [N-tert-butyl-2-(3-{[2-(tert-butylcarbamoyl)phenyl]sulfanyl}-2-hydroxypropyl)benzamide] was tested. Which pKi did it give?
Answer: 4.08

Question: How did the pKi turn out when `CCC1(N(CCO)C(=O)c2ccccc2CC[C@H](O)Cc2ccc(C)cc2C(=O)N(CCO)C(C)(C)c2ccccc2)CCCC1` [2-[(2S)-4-{2-[(1-ethylcyclopentyl)(2-hydroxyethyl)carbamoyl]phenyl}-2-hydroxybutyl]-N-(2-hydroxyethyl)-5-methyl-N-(2-phenylpropan-2-yl)benzamide] was run?
Answer: 5.85
